Like-named read-outs stand apart in the source and are kept apart here.
Experiments:
brain MAO-B enzyme [1] = molecular target: T1, brain MAO-B enzyme (Homo sapiens, UniProt P27338); experiment: PET with [11C]-L-deprenyl-D2: brain MAO-B inhibition after repeated oral sembragiline; format: in vivo; conditions: mean (range); for [11C]-L-deprenyl-D2 λk3 post-dose: EC subjects; for [11C]-L-deprenyl-D2 λk3 post-dose / receptor occupancy at 0.2 mg: N = 3; for receptor occupancy at 0.2 mg / receptor occupancy at 5 mg / receptor occupancy at 1 mg / receptor occupancy at 0.1 mg: human, AD patients, read-out: Occ (MAO-B occupancy); for receptor occupancy at 0.2 mg: 168 h; for receptor occupancy at 5 mg: 216 h, 5 mg q.d. for 6–9 days; for receptor occupancy at 5 mg / receptor occupancy at 1 mg / receptor occupancy at 0.1 mg: N = 2; for receptor occupancy at 1 mg: 336 h; for receptor occupancy at 0.1 mg: 360 h, 5 mg loading day 1 then 0.1 mg q.d. days 2–15
T1 sequence (P27338 1-520): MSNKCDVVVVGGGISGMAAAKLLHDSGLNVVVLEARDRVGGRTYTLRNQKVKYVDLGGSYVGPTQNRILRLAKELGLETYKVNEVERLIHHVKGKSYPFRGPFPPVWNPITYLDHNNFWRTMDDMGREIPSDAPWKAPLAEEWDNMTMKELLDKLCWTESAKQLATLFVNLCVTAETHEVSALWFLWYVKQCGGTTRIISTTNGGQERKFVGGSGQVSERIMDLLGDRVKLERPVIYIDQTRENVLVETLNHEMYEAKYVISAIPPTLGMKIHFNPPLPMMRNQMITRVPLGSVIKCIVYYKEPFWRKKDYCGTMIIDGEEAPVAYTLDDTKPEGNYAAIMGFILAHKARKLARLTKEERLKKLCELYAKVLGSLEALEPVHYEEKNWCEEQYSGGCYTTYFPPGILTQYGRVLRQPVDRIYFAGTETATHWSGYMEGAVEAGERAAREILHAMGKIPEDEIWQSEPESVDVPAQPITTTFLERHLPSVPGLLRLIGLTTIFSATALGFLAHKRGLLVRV
Method: The first dose was administered at the study centre under the supervision of study personnel. On subsequent study days, treatment compliance was assured by intake logs and tablet counting.
At baseline, each subject underwent a PET scan using [^11C]-L-deprenyl-D2 to measure MAO-B enzyme activity in the brain prior to their first dose of allocated medication. The second scan was performed at trough concentrations at steady state prior to the last drug administration. Before each scan, a cannula was inserted into a radial artery and another into an antecubital vein. A sterile phosphate buffer (pH = 7.4) containing radioligand was injected as a bolus over several seconds into the cubital vein.
A transmission scan was performed using three rotating ^68Ge rod sources. [^11C]-L-Deprenyl-D2 was injected intravenously as a bolus, and emission data were acquired over 63 min using the ECAT EXACT high-resolution system (Siemens Medical Solutions, Malvern, PA, USA). The injected radioactivity was targeted to approximately 300 MBq. The injected mass of deprenyl was to be ≤100 μg, and ≥50–100-fold lower than the typical administered dose of 5–10 mg deprenyl to patients with Parkinson’s disease. The framing was as follows: 9 frames x 10 s, 2 frames x 15 s, 3 frames x 20 s, 4 frames x 30 s, 4 frames x 60 s, 4 frames x 180 s, 7 frames x 360 s. Images were reconstructed using the standard filtered back-projection, with a 2-mm Hanning filter, a zoom factor of 2.17, and a 128 × 128 matrix, and were corrected for attenuation and scatter. A summation PET image was created for each subject and PET session by averaging across all frames. Time–activity curves were then extracted from selected ROIs.
Arterial blood samples were used for measurement of radioactivity in whole blood and plasma, as well as to determine the parent fraction of the radioligand, using a reversed-phase high-performance liquid chromatography method (Karolinska University Hospital, Solna, Stockholm, Sweden). A catheter was inserted in the radial artery, and arterial blood was collected continuously for 10 min using an automated blood sampling system at a speed of 5 mL/min. Discrete blood samples were drawn approximately 10, 15, 20, 30, 45 and 60 min after each injection of [^11C]-L-deprenyl-D2.
Time–activity data were analysed as previously described. Briefly, [^11C]-L-deprenyl-D2 was quantified by the two-tissue compartment model with three rate constants (K 1, k 2, k 3) using the PMOD 3.3 software package (PMOD Group, Zurich, Switzerland), where the tissue compartments represent the free plus non-specifically bound and specifically bound radiotracer. The outcome measure λk 3 was calculated as (K 1/k 2)*k 3, using a non-linear approach, and was used as an estimate for specific binding to MAO-B that was independent of perfusion. […] This is because λk3 is independent of perfusion and has better reproducibility than k3 alone.

brain MAO-B enzyme [2] = molecular target: T1, brain MAO-B enzyme; conditions: ref Roche data on file, cited from earlier work; for Brain MAO-B inhibition: young healthy subjects
[3] = 1 mg q.d. for 14 days, hippocampus
[4] = 1 mg q.d. for 14 days, parietal cortex
[5] = 1 mg q.d. for 14 days, striatum
[6] = 1 mg q.d. for 14 days, thalamus
[7] = 1 mg q.d. for 14 days, whole brain
[8] = 5 mg loading day 1 then 0.2 mg q.d. days 2–7, frontal cortex
[9] = 5 mg loading day 1 then 0.2 mg q.d. days 2–7, hippocampus
[10] = 5 mg loading day 1 then 0.2 mg q.d. days 2–7, parietal cortex
[11] = 5 mg loading day 1 then 0.2 mg q.d. days 2–7, striatum
[12] = 5 mg loading day 1 then 0.2 mg q.d. days 2–7, thalamus
[13] = 5 mg loading day 1 then 0.2 mg q.d. days 2–7, whole brain

In the case of `CC(=O)N[C@H]1CC(=O)N(c2ccc(OCc3cccc(F)c3)cc2)C1` [sembragiline], the “[11C]-L-deprenyl-D2 λk3 post-dose” value (brain MAO-B enzyme [1]; [3]) is reported as 0.04 (0.03–0.05), the “[11C]-L-deprenyl-D2 λk3 post-dose” value (brain MAO-B enzyme [1]; [4]) is reported as 0.04 (0.04–0.05) and the “[11C]-L-deprenyl-D2 λk3 post-dose” value (brain MAO-B enzyme [1]; [5]) is reported as 0.05 (0.04–0.06). For the same compound, the “[11C]-L-deprenyl-D2 λk3 post-dose” value (brain MAO-B enzyme [1]; [6]) was 0.05 (0.04–0.05), the “[11C]-L-deprenyl-D2 λk3 post-dose” value (brain MAO-B enzyme [1]; [7]) was 0.05 (0.04–0.05) and the “[11C]-L-deprenyl-D2 λk3 post-dose” value (brain MAO-B enzyme [1]; [8]) was 0.07 (0.06–0.09). The “[11C]-L-deprenyl-D2 λk3 post-dose” value (brain MAO-B enzyme [1]; [9]) was 0.11 (0.09–0.13), the “[11C]-L-deprenyl-D2 λk3 post-dose” value (brain MAO-B enzyme [1]; [10]) was 0.07 (0.06–0.09) and the “[11C]-L-deprenyl-D2 λk3 post-dose” value (brain MAO-B enzyme [1]; [11]) was 0.12 (0.09–0.14). For the same compound, the “[11C]-L-deprenyl-D2 λk3 post-dose” value (brain MAO-B enzyme [1]; [12]) was 0.12 (0.09–0.13), the “[11C]-L-deprenyl-D2 λk3 post-dose” value (brain MAO-B enzyme [1]; [13]) was 0.08 (0.07–0.10) and the receptor occupancy at 0.2 mg (brain MAO-B enzyme [1]; [8]) was 70.2%. It also gave a receptor occupancy at 0.2 mg (brain MAO-B enzyme [1]; [9]) of 76.1%, a receptor occupancy at 0.2 mg (brain MAO-B enzyme [1]; [10]) of 68.7% and a receptor occupancy at 0.2 mg (brain MAO-B enzyme [1]; [11]) of 77.1%. It also gave a receptor occupancy at 0.2 mg (brain MAO-B enzyme [1]; [12]) of 76.8%, a receptor occupancy at 0.2 mg (brain MAO-B enzyme [1]; [13]) of 68.9% and a receptor occupancy at 5 mg (brain MAO-B enzyme [1]; frontal cortex) of 77.8%. The receptor occupancy at 5 mg (brain MAO-B enzyme [1]; hippocampus) was 83.3%, the receptor occupancy at 5 mg (brain MAO-B enzyme [1]; parietal cortex) was 78.1% and the receptor occupancy at 5 mg (brain MAO-B enzyme [1]; striatum) was 84.8%. For the same compound, the receptor occupancy at 5 mg (brain MAO-B enzyme [1]; thalamus) was 86.3%, the receptor occupancy at 5 mg (brain MAO-B enzyme [1]; whole brain) was 76.3% and the receptor occupancy at 1 mg (brain MAO-B enzyme [1]; 1 mg q.d. for 14 days, frontal cortex) was 79.7%. The receptor occupancy at 1 mg (brain MAO-B enzyme [1]; [3]) was 79.2%, the receptor occupancy at 1 mg (brain MAO-B enzyme [1]; [4]) was 78% and the receptor occupancy at 1 mg (brain MAO-B enzyme [1]; [5]) was 85%. The receptor occupancy at 1 mg (brain MAO-B enzyme [1]; [6]) was 86%, the receptor occupancy at 1 mg (brain MAO-B enzyme [1]; [7]) was 75.5% and the receptor occupancy at 0.1 mg (brain MAO-B enzyme [1]; frontal cortex) was 56.9%. It also gave a receptor occupancy at 0.1 mg (brain MAO-B enzyme [1]; hippocampus) of 53.8%, a receptor occupancy at 0.1 mg (brain MAO-B enzyme [1]; parietal cortex) of 55.6% and a receptor occupancy at 0.1 mg (brain MAO-B enzyme [1]; striatum) of 59.9%. For the same compound, the receptor occupancy at 0.1 mg (brain MAO-B enzyme [1]; thalamus) was 60.4%, the receptor occupancy at 0.1 mg (brain MAO-B enzyme [1]; whole brain) was 55.2% and the Brain penetration (brain MAO-B enzyme [2]; healthy young men, PET imaging) was “crosses the blood–brain barrier”. The “Brain MAO-B inhibition” value (brain MAO-B enzyme [2]; 5 mg daily for 2–10 days, cortical regions) was 52–78%, the “Brain MAO-B inhibition” value (brain MAO-B enzyme [2]; 5 mg daily for 2–10 days, subcortical regions) was 73–87% and the “Brain MAO-B inhibition” value (brain MAO-B enzyme [2]; 15 mg, cortical regions) was 68–74%. For the same compound, the “Brain MAO-B inhibition” value (brain MAO-B enzyme [2]; 15 mg, subcortical regions) was 83–86%.

Reference: article PMC5281649 (European Journal of Nuclear Medicine and Molecular Imaging, 2016)
